Assay results from the NIST ThermoML archive (doi:10.1021/je5005752).

Experiment: xn = mol fraction of the nth substance listed
Conditions: 101 kPa, Liquid; for viscosity: Falling or rolling sphere viscometry; for mass density: Vibrating tube method

CCCC(=O)OCC [ethyl butanoate] + CCCO
Conditions | mass density [kg/m3] | viscosity [mPa·s]
288.15 K, x1 = 0.1001 | 819.96 | 1.784
288.15 K, x1 = 0.2 | 830.48 | 1.392
288.15 K, x1 = 0.2999 | 839.77 | 1.151
288.15 K, x1 = 0.3994 | 848.08 | 1.008
288.15 K, x1 = 0.4999 | 855.6 | 0.9046
288.15 K, x1 = 0.6002 | 862.45 | 0.8354
288.15 K, x1 = 0.6998 | 868.56 | 0.7874
288.15 K, x1 = 0.8001 | 874.16 | 0.7517
288.15 K, x1 = 0.9001 | 879.26 | 0.7286
288.15 K, x1 = 1 | 884.16 | 0.7224
293.15 K, x1 = 0.1001 | 815.72 | 1.599
293.15 K, x1 = 0.2 | 826.03 | 1.262
293.15 K, x1 = 0.2999 | 835.14 | 1.054
293.15 K, x1 = 0.3994 | 843.3 | 0.9293
293.15 K, x1 = 0.4999 | 850.69 | 0.8397
293.15 K, x1 = 0.6002 | 857.44 | 0.779
293.15 K, x1 = 0.6998 | 863.46 | 0.737
293.15 K, x1 = 0.8001 | 868.99 | 0.706
293.15 K, x1 = 0.9001 | 874.03 | 0.6861
293.15 K, x1 = 1 | 878.9 | 0.6808
298.15 K, x1 = 0.1001 | 811.45 | 1.438
298.15 K, x1 = 0.2 | 821.55 | 1.147
298.15 K, x1 = 0.2999 | 830.49 | 0.9686
298.15 K, x1 = 0.3994 | 838.5 | 0.8586
298.15 K, x1 = 0.4999 | 845.76 | 0.7808
298.15 K, x1 = 0.6002 | 852.4 | 0.7275
298.15 K, x1 = 0.6998 | 858.34 | 0.6906
298.15 K, x1 = 0.8001 | 863.8 | 0.6636
298.15 K, x1 = 0.9001 | 868.79 | 0.6465
298.15 K, x1 = 1 | 873.62 | 0.643
303.15 K, x1 = 0.1001 | 807.15 | 1.3
303.15 K, x1 = 0.2 | 817.04 | 1.048
303.15 K, x1 = 0.2999 | 825.81 | 0.8932
303.15 K, x1 = 0.3994 | 833.68 | 0.7965
303.15 K, x1 = 0.4999 | 840.81 | 0.727
303.15 K, x1 = 0.6002 | 847.35 | 0.68
303.15 K, x1 = 0.6998 | 853.2 | 0.6481
303.15 K, x1 = 0.8001 | 858.59 | 0.624
303.15 K, x1 = 0.9001 | 863.53 | 0.6098
303.15 K, x1 = 1 | 868.33 | 0.6072
308.15 K, x1 = 0.1001 | 802.83 | 1.179
308.15 K, x1 = 0.2 | 812.51 | 0.959
308.15 K, x1 = 0.2999 | 821.1 | 0.8239
308.15 K, x1 = 0.3994 | 828.82 | 0.7391
308.15 K, x1 = 0.4999 | 835.83 | 0.6786
308.15 K, x1 = 0.6002 | 842.27 | 0.638
308.15 K, x1 = 0.6998 | 848.03 | 0.6089
308.15 K, x1 = 0.8001 | 853.36 | 0.5882
308.15 K, x1 = 0.9001 | 858.26 | 0.5756
308.15 K, x1 = 1 | 863.02 | 0.5736
313.15 K, x1 = 0.1001 | 798.47 | 1.073
313.15 K, x1 = 0.2 | 807.94 | 0.8796
313.15 K, x1 = 0.2999 | 816.35 | 0.7599
313.15 K, x1 = 0.3994 | 823.93 | 0.6873
313.15 K, x1 = 0.4999 | 830.81 | 0.6338
313.15 K, x1 = 0.6002 | 837.16 | 0.598
313.15 K, x1 = 0.6998 | 842.84 | 0.5722
313.15 K, x1 = 0.8001 | 848.11 | 0.5543
313.15 K, x1 = 0.9001 | 852.96 | 0.544
313.15 K, x1 = 1 | 857.7 | 0.5424
318.15 K, x1 = 0.1001 | 794.06 | 0.9782
318.15 K, x1 = 0.2 | 803.33 | 0.8084
318.15 K, x1 = 0.2999 | 811.58 | 0.7044
318.15 K, x1 = 0.3994 | 819 | 0.6398
318.15 K, x1 = 0.4999 | 825.77 | 0.5926
318.15 K, x1 = 0.6002 | 832 | 0.5612
318.15 K, x1 = 0.6998 | 837.62 | 0.5398
318.15 K, x1 = 0.8001 | 842.82 | 0.5227
318.15 K, x1 = 0.9001 | 847.64 | 0.5138
318.15 K, x1 = 1 | 852.36 | 0.5132
323.15 K, x1 = 0.1001 | 789.62 | 0.9018
323.15 K, x1 = 0.2 | 798.67 | 0.7475
323.15 K, x1 = 0.2999 | 806.74 | 0.6572
323.15 K, x1 = 0.3994 | 814.03 | 0.601
323.15 K, x1 = 0.4999 | 820.68 | 0.5568
323.15 K, x1 = 0.6002 | 826.83 | 0.5301
323.15 K, x1 = 0.6998 | 832.37 | 0.5106
323.15 K, x1 = 0.8001 | 837.52 | 0.4955
323.15 K, x1 = 0.9001 | 842.3 | 0.488
323.15 K, x1 = 1 | 847 | 0.487
